What all share (assay): NCI tumour cell line growth inhibition, 48 h
Test [1] has as its system ACHN renal.
For test [2], the system named is DLD-1 colon.
The test system of test [3] is DMS 273 small cell lung.
The subject of test [4] is HCT-15 colon.
Test [5] relates to KM20L2 colon.
Test [6] concerns M14 melanoma.
Test [7] has as its system SNB-78 CNS.
Test [8] relates to TK-10 renal.
For test [9], the system named is XF 498 CNS.
Test [10] relates to A498 renal.
Test [11] has as its system CCRF-CEM leukemia.
The test system of test [12] is COLO 205 colon.
The subject of test [13] is NCI/ADR-RES ovarian.
Test [14] deals with P388/ADR leukemia.
Test [15] relates to SF-295 CNS.
Test [16] deals with SK-MEL-2 melanoma.
Test [17] deals with SK-MEL-28 melanoma.
Test [18] concerns SNB-75 CNS.
Test [19] has as its system DU-145 prostate.
Test [20] relates to MDA-MB-231 breast.

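Five concentrations, 48 hours, 96-well plates. TGI: concentration producing complete growth inhibition.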 Some results are limits rather than exact numbers.

Turning to `CCOc1ccc(C(C)c2cc3c(cc2OC)OCO3)cc1` (stereo unspecified), the TGI in test [1] was more than 100 µM; in test [2] it was 82.5 µM; in [3], 11.7 µM; in test [4], more than 100 µM; in test [5] it was 0.414 µM; in test [6], 45 µM. The figures for the TGI in test [7], in test [8] and in test [9] were more than 100 µM, more than 100 µM and 0.823 µM, respectively.

As for `COC1=CC(=O)C=C(OC)C1=O`, the TGI in [10] amounted to 3.39 µM; in [11] it was 4.88 µM; in test [12], 40.3 µM; in test [2] it was 27.9 µM; in test [3] it was 76.8 µM; in test [4], 80.9 µM. Further, the TGI in test [5] is 66.8 µM; in test [13], 10.1 µM; in [14], 1.08 µM; in test [15], 34.6 µM; in test [16] it was 17.7 µM; in test [17] it was 46.5 µM. The results for the TGI in [18], in test [7] and in test [9] were 55.9 µM, 56.8 µM and 6.34 µM, respectively.

For the compound `CN1Cc2cc(O)c(O)cc2C(O)C1` (stereo unspecified), the TGI in [1], in test [11], in test [12], in test [19], in test [6] and in test [20] was more than 100 µM in each case. The TGI in test [13], in test [15], in test [16], in test [17], in test [18] and in test [8] was more than 100 µM in each case.

For the origin of these results see PubChem BioAssay (NCI).
